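Growth conditions: 96-well plates. Treatment: test compound, 48 hours, 5 concentrations. Analysis: linear interpolation between bracketing concentrations; unreached endpoints set to highest concentration. The concentration for 50% growth inhibition is given as GI50.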 Active and inactive are the calls of the source. Rule as the data show it: active = GI50 up to about 1.1 µM and inactive = higher.
Assays:
Experiment in all cases: inhibition of tumour cell growth, NCI panel, 48 h
[1] = system: MDA-N
[2] = system: OVCAR-5
[3] = system: RXF 393
[4] = system: UACC-62
[5] = system: SNB-19
[6] = system: SNB-75
[7] = system: U-251
[8] = system: IGROV-1
[9] = system: OVCAR-3
[10] = system: M14
[11] = system: KM12
[12] = system: HCC 2998
[13] = system: UACC-257
[14] = system: SW-620
[15] = system: EKVX
[16] = system: 786-0
[17] = system: TK-10
[18] = system: MCF7
[19] = system: NCI-H522
[20] = system: SK-MEL-5

Measured: GI50

COc1ccc2c(c1)/C(=C(\C(Cl)=C(\Cl)N1CCCCC1)[N+](=O)[O-])N2
inactive: [1] > 100 µM | [2] > 100 µM | [3] 64 µM | [4] > 100 µM | [5] > 100 µM | [6] > 100 µM | [7] > 100 µM | [8] 90.6 µM | [9] 42.5 µM | [10] > 100 µM | [11] > 100 µM | [12] > 100 µM | [13] > 100 µM | [14] 71 µM | [15] 48.9 µM | [16] > 100 µM | [17] > 100 µM | [18] > 100 µM | [19] 39.4 µM | [20] 45.9 µM

Cc1c(C)c(S(=O)(=O)N(CCCN)OCCCN)c(C)c2c1OC(C)(C)CC2
inactive: [1] 15.8 µM | [2] 13 µM | [3] 9.04 µM | [4] 14.8 µM | [5] 11.8 µM | [6] 11.3 µM | [7] 11.9 µM | [8] 7.78 µM | [9] 15 µM | [10] 14.3 µM | [11] 12.4 µM | [12] 4.14 µM | [13] 13.7 µM | [14] 15.1 µM | [15] 16.7 µM | [16] 15.9 µM | [17] 14.7 µM | [18] 15.4 µM | [19] 14 µM | [20] 15.6 µM

COc1cc2oc(-c3ccc(O)cc3O)c(CC=C(C)C)c(=O)c2c(O)c1/C=C/C(C)C [ARTOCARPIN]
inactive: [1] 2.79 µM | [2] 6.64 µM | [3] 2.12 µM | [4] 3.83 µM | [5] 2.72 µM | [6] 3.04 µM | [7] 2.56 µM | [8] 3.52 µM | [9] 2.08 µM | [10] 1.77 µM | [11] 3.1 µM | [12] 2.46 µM | [13] 6.31 µM | [14] 2.33 µM | [15] 4.2 µM | [16] 2.14 µM | [17] 4.85 µM | [18] 2.88 µM | [19] 3.24 µM | [20] 1.69 µM

From ChEMBL document CHEMBL1201862, “PubChem BioAssay data set” (2004)
